# Test results reported in EP4667458A1 (Kanaph Therapeutics Inc., priority 2023, dated 2024).
# Target: T1, KRAS^G12C::SOS1 (Homo sapiens, UniProt Q07889)
# T1 sequence (Q07889 1-1333): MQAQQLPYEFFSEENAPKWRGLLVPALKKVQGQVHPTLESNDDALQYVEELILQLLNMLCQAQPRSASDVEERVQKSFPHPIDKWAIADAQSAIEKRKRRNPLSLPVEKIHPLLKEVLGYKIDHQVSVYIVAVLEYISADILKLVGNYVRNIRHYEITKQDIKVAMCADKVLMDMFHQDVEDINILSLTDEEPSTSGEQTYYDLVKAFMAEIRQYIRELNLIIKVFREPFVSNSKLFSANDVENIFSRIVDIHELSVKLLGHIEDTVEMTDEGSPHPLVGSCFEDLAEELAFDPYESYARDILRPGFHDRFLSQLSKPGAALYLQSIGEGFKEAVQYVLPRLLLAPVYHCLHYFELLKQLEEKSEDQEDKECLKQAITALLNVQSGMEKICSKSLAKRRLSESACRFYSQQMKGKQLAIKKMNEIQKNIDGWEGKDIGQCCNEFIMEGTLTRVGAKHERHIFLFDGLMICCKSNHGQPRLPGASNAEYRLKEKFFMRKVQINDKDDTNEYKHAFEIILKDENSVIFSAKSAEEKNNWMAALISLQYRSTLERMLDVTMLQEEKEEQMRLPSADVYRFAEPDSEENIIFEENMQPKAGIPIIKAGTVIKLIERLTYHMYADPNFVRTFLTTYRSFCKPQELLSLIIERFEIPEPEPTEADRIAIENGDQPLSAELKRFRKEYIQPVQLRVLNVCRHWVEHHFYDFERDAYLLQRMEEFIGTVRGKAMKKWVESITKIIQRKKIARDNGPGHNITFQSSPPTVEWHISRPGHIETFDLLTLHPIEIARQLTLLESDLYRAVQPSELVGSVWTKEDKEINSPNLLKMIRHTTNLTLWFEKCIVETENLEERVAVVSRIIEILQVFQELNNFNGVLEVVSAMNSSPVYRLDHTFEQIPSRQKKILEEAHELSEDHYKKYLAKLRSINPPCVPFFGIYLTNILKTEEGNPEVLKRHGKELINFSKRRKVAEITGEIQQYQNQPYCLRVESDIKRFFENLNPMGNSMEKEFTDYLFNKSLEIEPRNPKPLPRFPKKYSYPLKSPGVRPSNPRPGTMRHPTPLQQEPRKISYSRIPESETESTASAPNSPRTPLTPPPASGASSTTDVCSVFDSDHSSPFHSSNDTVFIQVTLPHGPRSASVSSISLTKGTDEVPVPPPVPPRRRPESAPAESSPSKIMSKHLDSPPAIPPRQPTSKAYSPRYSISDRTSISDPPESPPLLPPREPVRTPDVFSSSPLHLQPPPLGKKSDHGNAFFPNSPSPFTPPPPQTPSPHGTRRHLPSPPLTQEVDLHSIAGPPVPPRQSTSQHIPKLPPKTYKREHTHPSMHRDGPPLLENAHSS
# Assay: KRAS G12C::SOS1 protein-protein interaction (PPI) inhibition assay (HTRF binding kit)
# Details: not given
row,IC50,Compound
1,< 1000 nM,"C[C@@H](NC(=O)c1nn(-c2ccccc2F)c(=O)cc1N)c1cccc(C(F)(F)CO)c1F [Example 379, 4-amino-N-[(1R)-1-[3-(1,1-difluoro-2-hydroxy-ethyl)-2-fluorophenyl]ethyl]-1-(2-fluorophenyl)-6-oxo-pyridazine-3-carboxamide]"
2,> 10000 nM,"C[C@@H](NC(=O)c1ccc(=O)n(-c2ccccc2F)n1)c1cccc(Oc2cccnc2)c1 [Example 305, 1-(2-fluorophenyl)-6-oxo-N-[(1R)-1-[3-(3-pyridyloxy)phenyl]ethyl]pyridazine-3-carboxamide]"
3,< 1000 nM,"COc1ccc(F)c(-n2nc(C(=O)N[C@H](C)c3cccc(C(F)(F)CO)c3F)ccc2=O)c1 [Example 182, N-[(1R)-1-[3-(1,1-difluoro-2-hydroxy-ethyl)-2-fluoro-phenyl]ethyl]-1-(2-fluoro-5-methoxyphenyl)-6-oxo-pyridazine-3-carboxamide]"
4,< 1000 nM,"C[C@@H](NC(=O)c1ccc(=O)n(-c2cccc(-c3ncnn3C)c2)c1)c1cc(N)cc(C(F)(F)F)c1 [Example 318, N-[(1R)-1-[3-amino-5-(trifluoromethyl)phenyl]ethyl]-1-[3-(2-methyl-1,2,4-triazol-3-yl)phenyl]-6-oxo-pyridine-3-carboxamide]"
5,< 1000 nM,CNCc1ccc(F)cc1-c1ccc([C@@H](C)NC(=O)c2ccc(=O)n(-c3cccnc3OC)n2)s1 [Example 407]
6,< 1000 nM,"C[C@@H](NC(=O)c1cc(Br)c(=O)n(-c2ccccc2)n1)c1cc(N)cc(C(F)(F)F)c1 [Example 241, (R)-N-(1-(3-amino-5-(trifluoromethyl)phenyl)ethyl)-5-bromo-6-oxo-1-phenyl-1,6-dihydropyridazine-3-carboxamide]"
7,< 1000 nM,"C[C@@H](NC(=O)c1ccc(=O)n(-c2cccc(-c3ccnn3C)c2)c1)c1cc(N)cc(C(F)(F)F)c1 [Example 321, N-[(1R)-1-[3-amino-5-(trifluoromethyl)phenyl]ethyl]-1-[3-(2-methylpyrazol-3-yl)phenyl]-6-oxo-pyridine-3-carboxamide]"
8,< 1000 nM,"CNCc1cc(Cl)ccc1-c1ccc([C@@H](C)NC(=O)c2ccc(=O)n(-c3ccccc3F)n2)s1 [Example 281, N-[(1R)-1-[5-[4-chloro-2-(methylaminomethyl)phenyl]-2-thienyl]ethyl]-1-(2-fluorophenyl)-6-oxo-pyridazine-3-carboxamide]"
9,< 1000 nM,"CCNCc1ccc(F)cc1-c1ccc([C@@H](C)NC(=O)c2ccc(=O)n(-c3cccnc3F)n2)s1 [Example 289, N-[(1R)-1-[5-[2-(ethylaminomethyl)-5-fluorophenyl]-2-thienyl]ethyl]-1-(2-fluoro-3-pyridyl)-6-oxo-pyridazine-3-carboxamide]"
10,< 1000 nM,"C[C@@H](NC(=O)c1ccc(=O)n(-c2cccc(-c3nccs3)c2)n1)c1cccc(C(F)(F)CO)c1F [Example 336, N-[(1R)-1-[3-(1,1-difluoro-2-hydroxy-ethyl)-2-fluoro-phenyl]ethyl]-6-oxo-1-(3-thiazol-2-ylphenyl)pyridazine-3-carboxamide]"

# The next lines start with the compound.
row,Compound,IC50
1,"COc1cc(-n2nc(C(=O)N[C@H](C)c3cccc(C(F)(F)CO)c3F)ccc2=O)ccn1 [Example 193, N-[(1R)-1-[3-(1,1-difluoro-2-hydroxy-ethyl)-2-fluoro-phenyl]ethyl]-1-(2-methoxy-4-pyridyl)-6-oxo-pyridazine-3-carboxamide]",< 1000 nM
2,"CNCc1ccccc1-c1ccc([C@@H](C)NC(=O)c2ccc(=O)n(-c3ccccc3F)n2)s1 [Example 298, 1-(2-fluorophenyl)-N-[(1R)-1-[5-[2-(methylaminomethyl)phenyl]-2-thienyl]ethyl]-6-oxo-pyridazine-3-carboxamide]",< 1000 nM
3,"C[C@@H](NC(=O)c1ccc(=O)n(-c2ccncc2)c1)c1cc(N)cc(C(F)(F)F)c1 [Example 163, N-[(1R)-1-[3-amino-5-(trifluoromethyl)phenyl]ethyl]-6-oxo-1-(4-pyridyl)pyridine-3-carboxamide]",< 1000 nM
4,"C[C@@H](NC(=O)c1ccc(=O)n(-c2cnn(C)c2Cl)n1)c1cc(N)cc(C(F)(F)F)c1 [Example 209, N-[(1R)-1-[3-amino-5-(trifluoromethyl)phenyl]ethyl]-1-(5-chloro-1-methyl-pyrazol-4-yl)-6-oxo-pyridazine-3-carboxamide]",< 1000 nM
5,"C[C@@H](NC(=O)c1ccc(=O)n(-c2cccnc2F)n1)c1ccc(-c2cc(F)ccc2CN(C)C)s1 [Example 403, N-[(1R)-1-(5-{2-[(dimethylamino)methyl]-5-fluorophenyl}thiophen-2-yl)ethyl]-1-(2-fluoropyridin-3-yl)-6-oxo-1,6-dihydropyridazine-3-carboxamide]",< 1000 nM
6,C[C@@H](NC(=O)c1ccc(=O)n(-c2ccccc2F)n1)c1cccc(-n2ccc(=O)cc2)c1 [Example 304],> 10000 nM
7,"CNC(=O)c1cccc(-n2nc(C(=O)N[C@H](C)c3cc(N)cc(C(F)(F)F)c3)ccc2=O)c1 [Example 253, N-[(1R)-1-[3-amino-5-(trifluoromethyl)phenyl]ethyl]-1-[3-(methylcarbamoyl)phenyl]-6-oxo-pyridazine-3-carboxamide]",< 1000 nM
8,"C[C@@H](NC(=O)c1ccc(=O)n(-c2cc(F)ccc2F)n1)c1cccc(C(F)(F)CO)c1F [Example 356, N-[(1R)-1-[3-(1,1-difluoro-2-hydroxy-ethyl)-2-fluoro-phenyl]ethyl]-1-(2,5-difluorophenyl)-6-oxo-pyridazine-3-carboxamide]",< 1000 nM
9,C[C@@H](NC(=O)c1ccc(=O)n(-c2cccc(C(=O)N3CCCC3)c2F)n1)c1cc(N)cc(C(F)(F)F)c1 [Example 230],< 1000 nM
10,"COc1ccccc1-n1cc(C(=O)N[C@H](C)c2cc(N)cc(C(F)(F)F)c2)ccc1=O [Example 168, N-[(1R)-1-[3-amino-5-(trifluoromethyl)phenyl]ethyl]-1-(2-methoxyphenyl)-6-oxo-pyridine-3-carboxamide]",< 1000 nM
11,"[2H]C([2H])([2H])n1nncc1-c1cccc(-n2nc(C(=O)N[C@H](C)c3cc(N)cc(C(F)(F)F)c3)ccc2=O)c1 [Example 237, N-[(1R)-1-[3-amino-5-(trifluoromethyl)phenyl]ethyl]-1-[3-(3-(trideuteriomethyl)triazol-4-yl)phenyl]-6-oxo-pyridazine-3-carboxamide]",< 1000 nM
12,"C[C@@H](NC(=O)c1ccc(=O)[nH]n1)c1cc(N)cc(C(F)(F)F)c1 [Example 221, N-[(1R)-1-[3-amino-5-(trifluoromethyl)phenyl]ethyl]-6-oxo-1H-pyridazine-3-carboxamide]",< 1000 nM
13,"COCCn1nc(C(=O)N[C@H](C)c2cc(N)cc(C(F)(F)F)c2)ccc1=O [Example 222, N-[(1R)-1-[3-amino-5-(trifluoromethyl)phenyl]ethyl]-1-(2-methoxyethyl)-6-oxo-pyridazine-3-carboxamide]",< 1000 nM
14,"C[C@@H](NC(=O)c1ccc(=O)n(-c2cccc(-c3nnnn3C)c2)c1)c1cc(N)cc(C(F)(F)F)c1 [Example 349, N-[(1R)-1-[3-amino-5-(trifluoromethyl)phenyl]ethyl]-1-[3-(1-methyltetrazol-5-yl)phenyl]-6-oxo-pyridine-3-carboxamide]",< 1000 nM
15,"CC(=O)Nc1cc(=O)n(-c2ccccc2F)nc1C(=O)N[C@H](C)c1cccc(C(F)(F)COC(C)=O)c1F [Example 380, [2-[3-[(1R)-1-[[4-acetamido-1-(2-fluorophenyl)-6-oxo-pyridazine-3-carbonyl]amino]ethyl]-2-fluoro-phenyl]-2,2-difluoro-ethyl] acetate]",< 1000 nM
16,"C[C@@H](NC(=O)c1ccc(=O)n(-c2cccc(CO)c2)n1)c1cc(N)cc(C(F)(F)F)c1 [Example 169, N-[(1R)-1-[3-amino-5-(trifluoromethyl)phenyl]ethyl]-1-[3-(hydroxymethyl)phenyl]-6-oxo-pyridazine-3-carboxamide]",< 1000 nM

# Same assay, conditions: read-out: KRAS ^G12C::SOS1 PPI assay (IC50 range, Grade); maximum concentration 3 µM, 8 concentrations, three replicates
row,IC50,Compound
1,< 1000 nM,CNCc1ccc(F)cc1-c1ccc([C@@H](C)NC(=O)c2ccc(=O)n(-c3cccnc3O)n2)s1 [Example 408]
2,< 1000 nM,N-[(1R)-1-[3-amino-5-(trifluoromethyl)phenyl]ethyl]-1-(4-fluorophenyl)-6-oxo-pyridazine-3-carboxamide [Example 172]
